Where a name gives a salt, the structure may show the parent alone.
How the values were obtained:
[1] = biological target: T1, BACE-1 (Homo sapiens, UniProt P56817); assay: LanthaScreen BACE1 biochemical assay (TR-FRET)
Protocol: Biochemical Assay to Assess Compounds for Inhibition of BACE-1
The LanthaScreen™ BACE1 assay kit from Invitrogen (Catalogue number PV4748) was used as the primary assay in the screening cascade.
Briefly, the test compound was incubated with the enzyme and substrate for 1 hour at room temperature in a reaction volume of 15 μl and then 5 nM terbium labelled anti-biotin antibody was added to stop the reaction and the solution incubated for a further 1 hour at room temperature. The microplate was read on an Envision plate reader fitted with a photometric 340 nm excitation filter and the amount of substrate that had been cleaved was represented by the TR-FRET ratio, calculated by dividing the Fluorescein emission signal (520 nm) by the Terbium emission signal (495 nm).

[2] = biological target: T1, BACE-1; assay: HTRF cell based assay, Aβ1-40 peptide secreted by recombinant HEK293 cells; design: endogenous in cells; host or cells: recombinant HEK293 cells engineered to over-produce APP; conditions: for EC50: Aβ1-40 secretion, recombinant HEK293 cells producing APP, overnight treatment, read-out: Cellular assay EC50 Ranges
Protocol: The cell based assay used to support the program utilized HTRF assay reagents from Cisbio (Catalogue number 62B40PEB) to quantify the amount of Aβ1-40 peptide secreted by recombinant HEK293 cells. The cells were engineered to produce high quantities of APP, the precursor for Aβ1-40 peptide, under hygromycin selection pressure. Briefly, cells were plated into 384-well microplates and allowed to settle for 2 hours prior to compound addition. Following overnight treatment with compound, the media containing secreted peptide was transferred into a low volume assay plate for quantification with HTRF immunoassay reagents. Adhering to the manufacturers protocol for quantification, a TR-FRET signal is obtained in the presence of the Aβ1-40 peptide following addition of a cryptate conjugated antibody and an XL665 conjugated antibody, each raised to a different epitope of the Aβ1-40 peptide. A low FRET signal is obtained when cells are treated with compounds that inhibit APP cleavage and peptide secretion.

T1 sequence (P56817 46-501): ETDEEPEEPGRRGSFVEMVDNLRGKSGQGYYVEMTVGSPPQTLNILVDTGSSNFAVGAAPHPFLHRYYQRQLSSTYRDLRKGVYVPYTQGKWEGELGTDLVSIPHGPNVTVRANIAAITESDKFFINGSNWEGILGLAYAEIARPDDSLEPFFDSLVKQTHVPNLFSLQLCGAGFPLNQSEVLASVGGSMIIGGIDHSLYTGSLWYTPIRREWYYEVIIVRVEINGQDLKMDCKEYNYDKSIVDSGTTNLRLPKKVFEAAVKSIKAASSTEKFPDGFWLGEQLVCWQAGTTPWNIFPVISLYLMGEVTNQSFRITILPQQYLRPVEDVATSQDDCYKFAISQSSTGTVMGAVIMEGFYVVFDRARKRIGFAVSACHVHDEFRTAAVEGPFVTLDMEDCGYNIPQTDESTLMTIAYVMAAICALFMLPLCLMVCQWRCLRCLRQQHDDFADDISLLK

Structure (SMILES) | IC50 [1] | EC50 [2] | IC50 ([2]; reference inhibitor, inhibition of Aβ1-40 peptide secretion, 30,000 cells per well)
NC1=NC2(CCS1)CC(c1ccccc1)Cc1sc(-c3cccc(Br)c3)cc12 (racemic) [Example 43] | 5 to 65 µM | 5 to 50 µM | –
COc1ccc(-c2cccc(-c3cc4c(s3)CC(c3ccccc3)CC43CCSC(N)=N3)c2)cc1 (racemic) [Example 44] | 1 to 5 µM | 5 to 50 µM | –
COCC1Cc2sc(-c3cccc(C#N)c3)cc2C2(CCSC(N)=N2)C1 (racemic) [Example 45, 3-(2′-amino-6-(methoxymethyl)-5′,6,6′,7-tetrahydro-5H-spiro[benzo[b]thiophene-4,4′-[1,3]thiazine]-2-yl)benzonitrile, Hydrochloride Salt] | 5 to 65 µM | 1 to 5 µM | –
N#Cc1cccc(-c2cc3c(s2)CCC(Cc2ccccc2)C32CCSC(N)=N2)c1 (racemic) [Example 47, 3-(2′-amino-5-benzyl-5′,6,6′,7-tetrahydro-5H-spiro[benzo[b]thiophene-4,4′-[1,3]thiazine]-2-yl)benzonitrile] | 5 to 65 µM | 1 to 5 µM | –
COc1ccc(CC2CCc3sc(-c4cccc(C#N)c4)cc3C23CCSC(N)=N3)cc1 (racemic) [Example 48] | 1 to 5 µM | 5 to 50 µM | –
CN1C(=O)[C@]2(CCCc3sc(-c4cccc(C#N)c4)cc32)N=C1N (single isomer, unassigned) [Example 50] | 5 to 65 µM | 1 to 5 µM | –
CN1C(=O)[C@@]2(CCCc3sc(-c4cccc(C#N)c4)cc32)N=C1N (single isomer, unassigned) [Example 51] | < 1 µM | ≤ 1 µM | –
N#Cc1cccc(-c2cc3c(s2)CCCC32CCSC(N)=N2)c1 (stereo in doubt) [Example 2, (R)-3-(2′-amino-5′,6,6′,7-tetrahydro-5H-spiro[benzo[b]thiophene-4,4′-[1,3]thiazine]-2-yl)benzonitrile] | < 1 µM | ≤ 1 µM | –
N#Cc1cccc(-c2cc3c(s2)CCCC32CCSC(N)=N2)c1 (centres unmarked) [Example 1, 3-(2′-amino-5′,6,6′,7-tetrahydro-5H-spiro[benzo[b]thiophene-4,4′-[1,3]thiazine]-2-yl)benzonitrile, Formate Salt] | 1 to 5 µM | ≤ 1 µM | –
NC1=NC2(CCCc3sc(-c4ccc(F)cc4)cc32)CCS1 (centres unmarked) [Example 3] | 5 to 65 µM | 5 to 50 µM | –
NC1=NC2(CCCc3sc(-c4cccnc4)cc32)CCS1 (centres unmarked) [Example 4] | 5 to 65 µM | 5 to 50 µM | –
COc1ccc(-c2cc3c(s2)CCCC32CCSC(N)=N2)cn1 (centres unmarked) [Example 5] | 5 to 65 µM | 5 to 50 µM | –
NC1=NC2(CCCc3sc(-c4ccc5c(c4)CCO5)cc32)CCS1 (centres unmarked) [Example 6] | 5 to 65 µM | 5 to 50 µM | –
NC1=NC2(CCCc3sc(-c4cncnc4)cc32)CCS1 (centres unmarked) [Example 7] | 5 to 65 µM | 5 to 50 µM | –
NC1=NC2(CCCc3sc(-c4ccc5c(c4)OCO5)cc32)CCS1 (centres unmarked) [Example 8] | 5 to 65 µM | 5 to 50 µM | –
CS(=O)(=O)c1cccc(-c2cc3c(s2)CCCC32CCSC(N)=N2)c1 (centres unmarked) [Example 9] | 5 to 65 µM | 1 to 5 µM | –
COc1ccc(C#N)cc1-c1cc2c(s1)CCCC21CCSC(N)=N1 (centres unmarked) [Example 10] | 1 to 5 µM | ≤ 1 µM | –
COc1cc(C#N)cc(-c2cc3c(s2)CCCC32CCSC(N)=N2)c1F (centres unmarked) [Example 11] | 5 to 65 µM | 1 to 5 µM | –
N#Cc1cc(F)cc(-c2cc3c(s2)CCCC32CCSC(N)=N2)c1 (centres unmarked) [Example 12] | 5 to 65 µM | 1 to 5 µM | –
COC(=O)c1cccc(-c2cc3c(s2)CCCC32CCSC(N)=N2)c1 (centres unmarked) [Example 13] | 5 to 65 µM | 5 to 50 µM | –
N#Cc1cc(-c2cc3c(s2)CCCC32CCSC(N)=N2)ccc1F (centres unmarked) [Example 14] | 1 to 5 µM | 1 to 5 µM | –
N#Cc1ccc(F)c(-c2cc3c(s2)CCCC32CCSC(N)=N2)c1 (centres unmarked) [Example 15] | 1 to 5 µM | ≤ 1 µM | –
N#Cc1ccc(Cl)c(-c2cc3c(s2)CCCC32CCSC(N)=N2)c1 (centres unmarked) [Example 16] | 1 to 5 µM | ≤ 1 µM | –
COc1cc(C#N)cc(-c2cc3c(s2)CCCC32CCSC(N)=N2)c1 (centres unmarked) [Example 17] | 1 to 5 µM | 1 to 5 µM | –

Structure (SMILES) | IC50 [1] | EC50 [2] | IC50 ([2]; reference inhibitor, inhibition of Aβ1-40 peptide secretion, 30,000 cells per well)
COc1ncc(-c2cc3c(s2)CCCC32CCSC(N)=N2)cc1C#N (centres unmarked) [Example 18] | 5 to 65 µM | 1 to 5 µM | –
N#Cc1cncc(-c2cc3c(s2)CCCC32CCSC(N)=N2)c1 (centres unmarked) [Example 19] | 5 to 65 µM | 1 to 5 µM | –
N#Cc1cc(-c2cc3c(s2)CCCC32CCSC(N)=N2)ccn1 (centres unmarked) [Example 20] | 5 to 65 µM | 1 to 5 µM | –
NC1=NC2(CCCc3sc(-c4cccc(-c5ccccc5)c4)cc32)CCS1 (centres unmarked) [Example 21] | 1 to 5 µM | 5 to 50 µM | –
COc1ccc(-c2cc3c(s2)CCCC32CCSC(N)=N2)cc1C#N (centres unmarked) [Example 22] | 5 to 65 µM | 1 to 5 µM | –
COCc1cccc(-c2cc3c(s2)CCCC32CCSC(N)=N2)c1 (centres unmarked) [Example 23] | 5 to 65 µM | 1 to 5 µM | –
NC1=NC2(CCCc3sc(-c4cccc(OC(F)(F)F)c4)cc32)CCS1 (centres unmarked) [Example 24] | 1 to 5 µM | 5 to 50 µM | –
NC1=NC2(CCCc3sc(-c4cccc(C(F)(F)F)c4)cc32)CCS1 (centres unmarked) [Example 25] | 1 to 5 µM | 5 to 50 µM | –
NC1=NC2(CCCc3sc(-c4cccc(Oc5ccccc5)c4)cc32)CCS1 (centres unmarked) [Example 26] | 1 to 5 µM | 5 to 50 µM | –
CC(C)c1cccc(-c2cc3c(s2)CCCC32CCSC(N)=N2)c1 (centres unmarked) [Example 27] | 1 to 5 µM | 5 to 50 µM | –
NC1=NC2(CCCc3sc(-c4cccc(Cl)c4)cc32)CCS1 (centres unmarked) [Example 28] | 1 to 5 µM | 5 to 50 µM | –
NC1=NC2(CCCc3sc(-c4ccc(-c5ccccc5)cc4)cc32)CCS1 (centres unmarked) [Example 29] | 1 to 5 µM | 5 to 50 µM | –
NC1=NC2(CCCc3sc(-c4cccc(OCc5ccccc5)c4)cc32)CCS1 (centres unmarked) [Example 30] | 1 to 5 µM | 5 to 50 µM | –
N#Cc1cccc(-c2cc3c(s2)CCCC32CCSC(N)=N2)n1 (centres unmarked) [Example 31] | 1 to 5 µM | 1 to 5 µM | –
N#Cc1cc(-c2cc3c(s2)CCCC32CCSC(N)=N2)cc(C(F)(F)F)c1 (centres unmarked) [Example 32] | 1 to 5 µM | 5 to 50 µM | –
COc1ccc(-c2cccc(-c3cc4c(s3)CCCC43CCSC(N)=N3)c2)cc1 (centres unmarked) [Example 33] | 1 to 5 µM | 5 to 50 µM | –
N#Cc1cc(Cl)cc(-c2cc3c(s2)CCCC32CCSC(N)=N2)c1 (centres unmarked) [Example 34] | 1 to 5 µM | 1 to 5 µM | –
Cc1cc(C#N)cc(-c2cc3c(s2)CCCC32CCSC(N)=N2)c1 (centres unmarked) [Example 35] | 1 to 5 µM | 1 to 5 µM | –
NC1=NC2(CCCc3sc(-c4cccc(-c5ccccn5)c4)cc32)CCS1 (centres unmarked) [Example 36] | 5 to 65 µM | 5 to 50 µM | –
CC(C)(C)c1cccc(-c2cc3c(s2)CCCC32CCSC(N)=N2)c1 (centres unmarked) [Example 37] | 5 to 65 µM | 5 to 50 µM | –
COc1cccc(-c2cccc(-c3cc4c(s3)CCCC43CCSC(N)=N3)c2)c1 (centres unmarked) [Example 38] | 1 to 5 µM | 5 to 50 µM | –
NC1=NC2(CCCc3sc(-c4cccc(CC(F)(F)F)c4)cc32)CCS1 (centres unmarked) [Example 39] | 5 to 65 µM | 5 to 50 µM | –
NC1=NC2(CCCc3sc(NC(=O)c4ccc(Br)cn4)cc32)CCS1 (centres unmarked) [Example 40] | 5 to 65 µM | 5 to 50 µM | –
C[C@H](NC(=O)Cc1cc(F)cc(F)c1)C(=O)N[C@@H]1C(=O)N(C)c2ccccc2-c2ccccc21 [reference compound] | – | – | 0.0002 µM

Reference: patent US9233982B2, “Spiro tetrahydro—benzothiophen derivatives useful for the treatment neurodegenerative diseases” (Ares Trading S.A., priority 2012, dated 2016)
